Measured values taken from patent EP4467141A1, “PYRAZOLO-QUINOLINES AS SELECTIVE INHIBITORS OF GENOTOXIC STRESS-INDUCED IKK/NF- KB PATHWAYS FOR CANCER THERAPY” (Max-Delbrück-Centrum für Molekulare Medizin in der …, priority 2023, dated 2024).

Legend:
Experiment in all cases: Kinase panel study
Type in all cases: biochemical
Conditions in all cases: read-out: Percentage of inhibition; for inhibition at 1 µM: 1000nM; for inhibition at 10 µM: 10000nM
ABL2 (Arg) = target: T1, ABL2 (Arg) (Homo sapiens, UniProt P42684)
T1 construct: purchased Thermo Fisher Scientific
In short: (§1)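 ZLyte/Adapta biochemical kinase assays, standard operating procedures; % inhibition at 1 µM or 10 µM test compound; IC50 determined in panel.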

AMPK (A2/B1/G3) = target: T2, AMPK (A2/B1/G3) (Homo sapiens, UniProt P54646)
T2 construct: purchased Thermo Fisher Scientific
In short: as §1

EPHA1 = target: T3, EPHA1 (Homo sapiens, UniProt P21709)
T3 construct: purchased Thermo Fisher Scientific
T3 sequence (P21709 26-976): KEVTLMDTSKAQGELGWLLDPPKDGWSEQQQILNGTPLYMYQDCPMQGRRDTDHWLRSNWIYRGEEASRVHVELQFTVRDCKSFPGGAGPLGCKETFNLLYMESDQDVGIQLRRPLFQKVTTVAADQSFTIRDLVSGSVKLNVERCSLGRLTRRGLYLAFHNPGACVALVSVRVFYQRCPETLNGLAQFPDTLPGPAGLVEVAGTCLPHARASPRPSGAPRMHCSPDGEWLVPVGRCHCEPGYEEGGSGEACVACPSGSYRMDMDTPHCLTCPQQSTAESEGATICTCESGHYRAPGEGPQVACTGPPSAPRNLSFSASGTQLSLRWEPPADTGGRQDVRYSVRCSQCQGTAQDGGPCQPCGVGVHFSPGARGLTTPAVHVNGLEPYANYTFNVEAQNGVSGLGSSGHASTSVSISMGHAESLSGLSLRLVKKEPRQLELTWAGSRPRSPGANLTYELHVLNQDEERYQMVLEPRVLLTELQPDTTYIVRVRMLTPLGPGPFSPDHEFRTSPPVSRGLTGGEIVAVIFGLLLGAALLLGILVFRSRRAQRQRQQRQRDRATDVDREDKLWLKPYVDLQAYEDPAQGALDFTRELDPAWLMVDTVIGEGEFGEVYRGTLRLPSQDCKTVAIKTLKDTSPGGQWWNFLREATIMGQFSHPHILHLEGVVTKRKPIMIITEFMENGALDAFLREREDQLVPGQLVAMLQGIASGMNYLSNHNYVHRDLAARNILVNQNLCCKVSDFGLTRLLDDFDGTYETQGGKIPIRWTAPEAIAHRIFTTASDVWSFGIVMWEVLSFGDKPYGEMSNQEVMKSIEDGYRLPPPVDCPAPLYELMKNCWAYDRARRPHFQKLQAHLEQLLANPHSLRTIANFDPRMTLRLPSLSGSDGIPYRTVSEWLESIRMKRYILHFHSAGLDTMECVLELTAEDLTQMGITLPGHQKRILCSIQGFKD
In short: as §1

PDGFRA D842V = target: T4, PDGFRA D842V (Homo sapiens, UniProt P16234, D842V)
T4 construct: purchased Thermo Fisher Scientific
In short: as §1

PHKG1 = target: T5, PHKG1 (Homo sapiens, UniProt Q16816)
T5 construct: purchased Thermo Fisher Scientific
In short: as §1

PRKCQ (PKC theta) = target: T6, PRKCQ (PKC theta) (Homo sapiens, UniProt Q04759)
T6 construct: purchased Thermo Fisher Scientific
In short: as §1

RET = target: T7, RET (Homo sapiens, UniProt P07949)
T7 construct: purchased Thermo Fisher Scientific
In short: as §1

RPS6KA4 (MSK2) = target: T8, RPS6KA4 (MSK2) (Homo sapiens, UniProt O75676)
T8 construct: purchased Thermo Fisher Scientific
In short: as §1

RPS6KB2 (p70S6Kb) = target: T9, RPS6KB2 (p70S6Kb) (Homo sapiens, UniProt Q9UBS0)
T9 construct: purchased Thermo Fisher Scientific
In short: as §1

T8 sequence (O75676 whole entry): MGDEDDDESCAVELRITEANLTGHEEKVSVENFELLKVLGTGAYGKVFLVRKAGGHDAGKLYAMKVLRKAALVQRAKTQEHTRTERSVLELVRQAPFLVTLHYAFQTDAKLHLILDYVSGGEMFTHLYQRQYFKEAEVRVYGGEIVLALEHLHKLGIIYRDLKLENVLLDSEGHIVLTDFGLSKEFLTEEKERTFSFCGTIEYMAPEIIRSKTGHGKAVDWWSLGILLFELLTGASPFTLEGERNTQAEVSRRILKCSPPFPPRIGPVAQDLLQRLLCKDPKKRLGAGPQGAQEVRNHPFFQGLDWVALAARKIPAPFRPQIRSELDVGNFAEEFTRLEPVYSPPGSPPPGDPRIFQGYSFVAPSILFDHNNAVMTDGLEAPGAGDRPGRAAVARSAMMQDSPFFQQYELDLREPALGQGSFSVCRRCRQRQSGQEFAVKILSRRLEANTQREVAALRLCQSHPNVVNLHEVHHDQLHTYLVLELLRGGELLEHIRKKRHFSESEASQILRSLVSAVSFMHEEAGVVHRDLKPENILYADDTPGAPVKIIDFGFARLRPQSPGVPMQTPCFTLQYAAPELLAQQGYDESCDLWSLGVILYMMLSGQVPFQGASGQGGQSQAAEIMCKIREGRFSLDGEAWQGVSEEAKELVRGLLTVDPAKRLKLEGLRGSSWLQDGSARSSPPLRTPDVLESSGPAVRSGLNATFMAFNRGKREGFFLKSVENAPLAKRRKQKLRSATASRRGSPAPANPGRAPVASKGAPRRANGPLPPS
T6 sequence (Q04759 whole entry): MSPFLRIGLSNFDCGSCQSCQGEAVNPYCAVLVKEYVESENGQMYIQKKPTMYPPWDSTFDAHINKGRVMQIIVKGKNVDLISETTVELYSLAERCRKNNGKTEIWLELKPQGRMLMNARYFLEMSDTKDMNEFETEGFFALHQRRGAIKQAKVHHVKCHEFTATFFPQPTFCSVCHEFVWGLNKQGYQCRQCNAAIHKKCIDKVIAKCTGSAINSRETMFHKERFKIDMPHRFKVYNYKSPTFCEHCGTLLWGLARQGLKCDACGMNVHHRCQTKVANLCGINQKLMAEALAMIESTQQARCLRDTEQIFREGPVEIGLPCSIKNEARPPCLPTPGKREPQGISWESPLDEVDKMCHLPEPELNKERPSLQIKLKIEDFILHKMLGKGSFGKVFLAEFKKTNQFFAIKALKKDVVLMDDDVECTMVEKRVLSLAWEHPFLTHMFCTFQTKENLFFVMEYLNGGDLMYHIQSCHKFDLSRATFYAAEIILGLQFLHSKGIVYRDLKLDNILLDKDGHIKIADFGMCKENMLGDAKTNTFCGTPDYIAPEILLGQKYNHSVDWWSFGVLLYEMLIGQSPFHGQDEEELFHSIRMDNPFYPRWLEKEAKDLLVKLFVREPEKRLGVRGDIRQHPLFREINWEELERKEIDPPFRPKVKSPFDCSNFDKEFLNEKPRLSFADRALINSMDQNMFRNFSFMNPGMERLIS
T7 sequence (P07949 29-1114): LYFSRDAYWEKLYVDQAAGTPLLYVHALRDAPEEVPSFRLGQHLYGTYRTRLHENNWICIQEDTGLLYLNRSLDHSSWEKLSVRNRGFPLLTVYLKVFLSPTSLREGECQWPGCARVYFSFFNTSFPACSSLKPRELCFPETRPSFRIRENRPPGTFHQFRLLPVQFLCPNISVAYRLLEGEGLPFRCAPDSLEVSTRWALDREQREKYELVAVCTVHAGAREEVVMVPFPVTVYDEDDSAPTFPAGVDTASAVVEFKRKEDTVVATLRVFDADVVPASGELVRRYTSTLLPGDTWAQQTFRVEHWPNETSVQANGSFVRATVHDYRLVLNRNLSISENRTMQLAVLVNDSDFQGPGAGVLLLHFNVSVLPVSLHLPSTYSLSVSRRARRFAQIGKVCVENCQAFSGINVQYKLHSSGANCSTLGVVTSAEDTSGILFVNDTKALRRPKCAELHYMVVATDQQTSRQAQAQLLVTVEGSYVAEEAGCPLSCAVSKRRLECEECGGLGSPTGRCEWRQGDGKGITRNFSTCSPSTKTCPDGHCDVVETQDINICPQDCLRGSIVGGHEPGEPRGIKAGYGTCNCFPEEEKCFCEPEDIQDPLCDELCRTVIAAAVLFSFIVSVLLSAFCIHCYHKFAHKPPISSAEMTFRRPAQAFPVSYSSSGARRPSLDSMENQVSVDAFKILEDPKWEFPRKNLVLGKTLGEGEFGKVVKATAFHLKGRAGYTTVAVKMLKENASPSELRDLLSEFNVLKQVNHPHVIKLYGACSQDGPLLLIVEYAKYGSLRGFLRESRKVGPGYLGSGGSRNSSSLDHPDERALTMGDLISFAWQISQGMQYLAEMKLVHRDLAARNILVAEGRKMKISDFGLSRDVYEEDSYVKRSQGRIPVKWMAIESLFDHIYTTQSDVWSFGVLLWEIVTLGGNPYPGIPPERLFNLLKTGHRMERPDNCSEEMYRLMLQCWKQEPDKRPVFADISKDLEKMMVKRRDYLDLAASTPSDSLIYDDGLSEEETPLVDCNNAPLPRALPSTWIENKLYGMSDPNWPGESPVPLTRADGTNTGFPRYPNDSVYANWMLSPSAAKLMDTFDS
T9 sequence (Q9UBS0 whole entry): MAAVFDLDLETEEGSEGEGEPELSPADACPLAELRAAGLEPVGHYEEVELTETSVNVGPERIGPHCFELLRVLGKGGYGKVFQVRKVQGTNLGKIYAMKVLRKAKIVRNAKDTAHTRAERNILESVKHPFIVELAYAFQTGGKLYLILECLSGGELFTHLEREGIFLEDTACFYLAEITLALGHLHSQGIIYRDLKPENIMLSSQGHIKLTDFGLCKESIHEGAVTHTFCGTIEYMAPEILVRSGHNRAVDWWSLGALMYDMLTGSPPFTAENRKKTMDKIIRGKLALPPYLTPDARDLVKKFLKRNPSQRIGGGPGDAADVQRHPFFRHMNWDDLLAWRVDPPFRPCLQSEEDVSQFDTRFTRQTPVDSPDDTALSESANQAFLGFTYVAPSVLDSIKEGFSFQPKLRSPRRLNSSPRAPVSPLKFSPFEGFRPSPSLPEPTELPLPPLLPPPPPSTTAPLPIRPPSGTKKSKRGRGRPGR
T1 sequence (P42684 whole entry): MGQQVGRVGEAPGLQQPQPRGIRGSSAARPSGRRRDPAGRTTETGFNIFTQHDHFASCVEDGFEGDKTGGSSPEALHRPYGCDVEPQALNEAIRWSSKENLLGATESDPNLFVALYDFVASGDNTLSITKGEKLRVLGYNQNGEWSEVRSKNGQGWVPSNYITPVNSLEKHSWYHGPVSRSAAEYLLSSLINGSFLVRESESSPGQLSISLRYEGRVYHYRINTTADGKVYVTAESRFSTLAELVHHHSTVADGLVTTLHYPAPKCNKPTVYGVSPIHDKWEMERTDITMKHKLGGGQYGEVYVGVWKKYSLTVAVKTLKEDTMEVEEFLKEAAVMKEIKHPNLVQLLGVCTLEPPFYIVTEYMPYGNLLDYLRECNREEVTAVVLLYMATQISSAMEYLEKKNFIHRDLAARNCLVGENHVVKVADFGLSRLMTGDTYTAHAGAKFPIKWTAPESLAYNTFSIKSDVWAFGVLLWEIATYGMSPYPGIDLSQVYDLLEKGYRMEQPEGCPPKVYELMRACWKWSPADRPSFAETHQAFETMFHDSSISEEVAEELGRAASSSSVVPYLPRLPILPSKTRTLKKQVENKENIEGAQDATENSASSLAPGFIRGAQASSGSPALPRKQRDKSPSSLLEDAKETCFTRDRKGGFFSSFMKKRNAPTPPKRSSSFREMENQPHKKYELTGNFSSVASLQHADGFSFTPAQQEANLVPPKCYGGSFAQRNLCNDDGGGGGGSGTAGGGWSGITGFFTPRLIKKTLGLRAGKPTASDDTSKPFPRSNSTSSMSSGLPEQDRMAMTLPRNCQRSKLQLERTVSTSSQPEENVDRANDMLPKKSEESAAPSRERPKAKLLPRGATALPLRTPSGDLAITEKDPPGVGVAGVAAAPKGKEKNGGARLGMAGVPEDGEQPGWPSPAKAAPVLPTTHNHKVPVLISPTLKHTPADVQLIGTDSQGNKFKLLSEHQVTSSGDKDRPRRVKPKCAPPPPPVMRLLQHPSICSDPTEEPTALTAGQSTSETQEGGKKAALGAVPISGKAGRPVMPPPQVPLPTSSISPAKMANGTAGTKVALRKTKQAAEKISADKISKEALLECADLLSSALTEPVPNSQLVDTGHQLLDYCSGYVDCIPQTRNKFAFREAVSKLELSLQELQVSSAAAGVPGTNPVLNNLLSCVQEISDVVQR
T5 sequence (Q16816 whole entry): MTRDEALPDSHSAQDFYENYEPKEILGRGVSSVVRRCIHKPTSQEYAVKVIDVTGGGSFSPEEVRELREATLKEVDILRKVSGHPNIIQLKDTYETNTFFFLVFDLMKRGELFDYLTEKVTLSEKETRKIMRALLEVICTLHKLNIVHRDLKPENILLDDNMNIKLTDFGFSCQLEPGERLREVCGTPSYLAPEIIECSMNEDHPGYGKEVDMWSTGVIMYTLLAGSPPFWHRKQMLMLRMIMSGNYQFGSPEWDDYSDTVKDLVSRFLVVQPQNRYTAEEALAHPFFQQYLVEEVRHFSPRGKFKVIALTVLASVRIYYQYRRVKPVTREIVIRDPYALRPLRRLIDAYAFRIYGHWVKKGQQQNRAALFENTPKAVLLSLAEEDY

SMILES	inhibition at 1 µM (ABL2 (Arg)) [%]	inhibition at 10 µM (ABL2 (Arg)) [%]	inhibition at 1 µM (AMPK (A2/B1/G3)) [%]	inhibition at 10 µM (AMPK (A2/B1/G3)) [%]	inhibition at 1 µM (EPHA1) [%]	inhibition at 10 µM (EPHA1) [%]	inhibition at 1 µM (PDGFRA D842V) [%]	inhibition at 10 µM (PDGFRA D842V) [%]	inhibition at 1 µM (PHKG1) [%]	inhibition at 10 µM (PHKG1) [%]	inhibition at 1 µM (PRKCQ (PKC theta)) [%]	inhibition at 10 µM (PRKCQ (PKC theta)) [%]	inhibition at 1 µM (RET) [%]	inhibition at 10 µM (RET) [%]	inhibition at 1 µM (RPS6KA4 (MSK2)) [%]	inhibition at 10 µM (RPS6KA4 (MSK2)) [%]	inhibition at 1 µM (RPS6KB2 (p70S6Kb)) [%]	inhibition at 10 µM (RPS6KB2 (p70S6Kb)) [%]
COc1ccc2c(c1OC)c(=O)n1c3ccc(O)cc3c3ccnc2c31 [MW01, 5-Hydroxy-10,11-dimethoxy-9H-benzo[c]indolo[3,2,1-ij][1,5]naphthyridin-9-one]	9	21	-2	12	9	16	3	35	8	12	4	21	15	34	12	24	7	1
COc1ccc2cc3c(N)nn(C(=O)c4cccc(N(C)C)c4)c3nc2c1 [MW05, (3-Amino-7-methoxypyrazolo[3,4-b]quinolin-1-yl)-[3-(dimethylamino)phenyl]methanone]	5	2	0	-3	11	-5	-4	-2	3	-11	2	-15	9	12	-3	4	3	15
